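Test compounds were applied to cells in 96-well plates for 48 hours at 5 doses. At the GI50, growth is halved.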 The source made the active and inactive calls. Cut-off read from the data, not from the text of the source: active = GI50 up to about 1.1 µM and inactive = higher.
How the values were obtained:
Assay in all cases: NCI tumour cell line growth inhibition, 48 h
786-0 = system: 786-0
A498 = system: A498
A549 = system: A549
ACHN = system: ACHN
CAKI-1 = system: CAKI-1
CCRF-CEM = system: CCRF-CEM
COLO 205 = system: COLO 205
DLD-1 = system: DLD-1
DMS-114 = system: DMS-114
DMS-273 = system: DMS-273
EKVX = system: EKVX
HCC 2998 = system: HCC 2998
HCT-116 = system: HCT-116
HCT-15 = system: HCT-15
HL-60 = system: HL-60
HOP-18 = system: HOP-18
HOP-62 = system: HOP-62
HOP-92 = system: HOP-92
HT-29 = system: HT-29
IGROV-1 = system: IGROV-1
K562 = system: K562
KM-20L2 = system: KM-20L2
KM12 = system: KM12
LOX IMVI = system: LOX IMVI
LXFL 529 = system: LXFL 529
M14 = system: M14
M19-MEL = system: M19-MEL
MOLT-4 = system: MOLT-4
Malme-3M = system: Malme-3M
NCI-H226 = system: NCI-H226
NCI-H23 = system: NCI-H23
NCI-H460 = system: NCI-H460
NCI-H522 = system: NCI-H522
OVCAR-3 = system: OVCAR-3
OVCAR-4 = system: OVCAR-4
OVCAR-5 = system: OVCAR-5
OVCAR-8 = system: OVCAR-8
RXF 393 = system: RXF 393
RXF 631 = system: RXF 631
SF-268 = system: SF-268
SF-295 = system: SF-295
SF-539 = system: SF-539
SK-MEL-28 = system: SK-MEL-28
SK-MEL-2 = system: SK-MEL-2
SK-MEL-5 = system: SK-MEL-5
SK-OV-3 = system: SK-OV-3
SN12C = system: SN12C
SNB-19 = system: SNB-19
SNB-75 = system: SNB-75
SNB-78 = system: SNB-78
SR = system: SR
SW-620 = system: SW-620
TK-10 = system: TK-10
U-251 = system: U-251
UACC-257 = system: UACC-257
UACC-62 = system: UACC-62
UO-31 = system: UO-31
RPMI-8226 = system: RPMI-8226
XF498 = system: XF498

## CN(C)CCNC(=O)c1ccc(C(=O)NCCN(C)C)c2nc3ccccc3cc12
786-0
  GI50: 0.692 µM (active)
A498
  GI50: 1.15 µM (inactive)
A549
  GI50: 0.45 µM (active)
ACHN
  GI50: 0.637 µM (active)
CAKI-1
  GI50: 1.48 µM (inactive)
CCRF-CEM
  GI50: 0.676 µM (active)
COLO 205
  GI50: 0.469 µM (active)
DLD-1
  GI50: 0.516 µM (active)
DMS-114
  GI50: 0.553 µM (active)
DMS-273
  GI50: 0.538 µM (active)
EKVX
  GI50: 1.81 µM (inactive)
HCC 2998
  GI50: 0.9 µM (active)
HCT-116
  GI50: 0.301 µM (active)
HCT-15
  GI50: 2.96 µM
HL-60
  GI50: 0.826 µM (active)
HOP-18
  GI50: 1.95 µM (inactive)
HOP-62
  GI50: 0.979 µM (active)
HOP-92
  GI50: 1.41 µM (inactive)
HT-29
  GI50: 0.452 µM (active)
IGROV-1
  GI50: 1.62 µM (inactive)
K562
  GI50: 0.61 µM (active)
KM-20L2
  GI50: 0.568 µM (active)
KM12
  GI50: 0.792 µM (active)
LOX IMVI
  GI50: 0.519 µM (active)
LXFL 529
  GI50: 0.729 µM (active)
M14
  GI50: 1.39 µM (inactive)
M19-MEL
  GI50: 0.8 µM (active)
MOLT-4
  GI50: 0.226 µM (active)
Malme-3M
  GI50: 1.38 µM (inactive)
NCI-H226
  GI50: 1.16 µM (inactive)
NCI-H23
  GI50: 1.71 µM (inactive)
NCI-H460
  GI50: 0.384 µM (active)
NCI-H522
  GI50: 0.47 µM (active)
OVCAR-3
  GI50: 1.77 µM (inactive)
OVCAR-4
  GI50: 0.697 µM (active)
OVCAR-5
  GI50: 1.22 µM (inactive)
OVCAR-8
  GI50: 0.571 µM (active)
RXF 393
  GI50: 0.762 µM (active)
RXF 631
  GI50: 1 µM (active)
SF-268
  GI50: 0.962 µM (active)
SF-295
  GI50: 0.895 µM (active)
SF-539
  GI50: 0.378 µM (active)
SK-MEL-28
  GI50: 1.74 µM (inactive)
SK-MEL-2
  GI50: 1.28 µM (inactive)
SK-MEL-5
  GI50: 1.49 µM (inactive)
SK-OV-3
  GI50: 0.916 µM (active)
SN12C
  GI50: 0.83 µM (active)
SNB-19
  GI50: 1.2 µM (inactive)
SNB-75
  GI50: 1.71 µM (inactive)
SNB-78
  GI50: 1.05 µM (active)
SR
  GI50: 0.399 µM (active)
SW-620
  GI50: 0.361 µM (active)
TK-10
  GI50: 0.94 µM (active)
U-251
  GI50: 0.533 µM (active)
UACC-257
  GI50: 1.62 µM (inactive)
UACC-62
  GI50: 1.15 µM (inactive)
UO-31
  GI50: 4.81 µM (inactive)

## CC1CC(=O)c2c(ccc3c2C(=O)c2cccc(O)c2C3=O)C1 (stereo unspecified)
786-0
  GI50: 7 µM (inactive)
A498
  GI50: 14 µM (inactive)
A549
  GI50: 7.16 µM (inactive)
CCRF-CEM
  GI50: 1.95 µM (inactive)
COLO 205
  GI50: 5.75 µM (inactive)
DLD-1
  GI50: 2.94 µM (inactive)
DMS-114
  GI50: 6.38 µM (inactive)
DMS-273
  GI50: 4.48 µM (inactive)
EKVX
  GI50: 14.6 µM (inactive)
HCC 2998
  GI50: 10.4 µM (inactive)
HCT-116
  GI50: 5.08 µM (inactive)
HCT-15
  GI50: 9.14 µM
HL-60
  GI50: 2.77 µM (inactive)
HOP-18
  GI50: 6.58 µM (inactive)
HOP-62
  GI50: > 10 µM (inactive)
HOP-92
  GI50: 1.79 µM (inactive)
HT-29
  GI50: 3.74 µM (inactive)
IGROV-1
  GI50: > 10 µM (inactive)
K562
  GI50: 2.77 µM (inactive)
KM12
  GI50: 12.7 µM (inactive)
LOX IMVI
  GI50: 4.47 µM (inactive)
LXFL 529
  GI50: 4.31 µM (inactive)
M14
  GI50: 1.97 µM (inactive)
M19-MEL
  GI50: 1.41 µM (inactive)
MOLT-4
  GI50: 2.13 µM (inactive)
Malme-3M
  GI50: 6.93 µM (inactive)
NCI-H226
  GI50: 14.4 µM (inactive)
NCI-H23
  GI50: 5.26 µM (inactive)
NCI-H460
  GI50: 4.62 µM (inactive)
NCI-H522
  GI50: 4.37 µM (inactive)
OVCAR-3
  GI50: 3.46 µM (inactive)
OVCAR-4
  GI50: 12.4 µM (inactive)
OVCAR-5
  GI50: 20.6 µM (inactive)
OVCAR-8
  GI50: 2.56 µM (inactive)
RPMI-8226
  GI50: 3.34 µM (inactive)
RXF 631
  GI50: 13.2 µM (inactive)
SF-268
  GI50: 10.4 µM (inactive)
SF-295
  GI50: 10.9 µM (inactive)
SF-539
  GI50: 14.8 µM (inactive)
SK-MEL-28
  GI50: 13.1 µM (inactive)
SK-MEL-2
  GI50: 8.81 µM (inactive)
SK-MEL-5
  GI50: 2.31 µM (inactive)
SK-OV-3
  GI50: 19.3 µM (inactive)
SNB-19
  GI50: 12.2 µM (inactive)
SNB-75
  GI50: 10.4 µM (inactive)
SNB-78
  GI50: 7.29 µM (inactive)
SR
  GI50: 3.54 µM (inactive)
SW-620
  GI50: 4.25 µM (inactive)
TK-10
  GI50: > 10 µM (inactive)
U-251
  GI50: 11.4 µM (inactive)
UACC-257
  GI50: 5.89 µM (inactive)
UACC-62
  GI50: 8.53 µM (inactive)
UO-31
  GI50: 11.5 µM (inactive)
XF498
  GI50: 12.6 µM (inactive)
